Like-named read-outs stand apart in the source and are kept apart here. Some results are limits rather than exact numbers.

The source of these data is patent publication US11427548B2 (Arvinas Operations, Inc., priority 2015, dated 2022).

The target of this assay is T1, Androgen Receptor (Homo sapiens, UniProt P10275).
T1 construct: endogenous in cells; host or cells: VCaP cells
T1 sequence (P10275 1-920): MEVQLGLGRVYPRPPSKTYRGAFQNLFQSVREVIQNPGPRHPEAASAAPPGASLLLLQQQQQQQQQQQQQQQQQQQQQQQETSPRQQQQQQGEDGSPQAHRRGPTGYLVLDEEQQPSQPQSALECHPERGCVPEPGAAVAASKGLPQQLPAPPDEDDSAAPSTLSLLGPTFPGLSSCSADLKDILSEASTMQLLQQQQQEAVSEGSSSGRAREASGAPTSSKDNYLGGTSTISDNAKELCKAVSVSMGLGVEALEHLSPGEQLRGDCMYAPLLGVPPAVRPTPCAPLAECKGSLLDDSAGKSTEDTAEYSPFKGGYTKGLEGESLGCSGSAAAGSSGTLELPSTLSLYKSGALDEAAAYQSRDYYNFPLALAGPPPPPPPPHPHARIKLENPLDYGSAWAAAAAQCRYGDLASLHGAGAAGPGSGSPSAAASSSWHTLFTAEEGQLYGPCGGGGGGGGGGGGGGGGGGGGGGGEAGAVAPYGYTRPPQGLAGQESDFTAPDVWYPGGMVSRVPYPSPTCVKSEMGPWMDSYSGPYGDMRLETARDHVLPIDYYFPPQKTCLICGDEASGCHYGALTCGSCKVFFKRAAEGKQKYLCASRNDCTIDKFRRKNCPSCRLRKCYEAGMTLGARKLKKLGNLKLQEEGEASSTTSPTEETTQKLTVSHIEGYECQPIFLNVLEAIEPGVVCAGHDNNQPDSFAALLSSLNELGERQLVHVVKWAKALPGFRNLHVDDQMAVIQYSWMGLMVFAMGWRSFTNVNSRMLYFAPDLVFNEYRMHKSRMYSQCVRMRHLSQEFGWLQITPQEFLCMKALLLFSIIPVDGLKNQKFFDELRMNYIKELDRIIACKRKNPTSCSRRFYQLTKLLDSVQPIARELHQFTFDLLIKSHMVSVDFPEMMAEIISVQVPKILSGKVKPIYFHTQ
The assay is described as follows: Androgen Receptor ELISA assay (PathScan AR ELISA) in VCaP cells: AR degradation, Dmax and DC50. The format is cell-based. The gist of the method:
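VCaP cells in phenol red-free RPMI with 5% charcoal-stripped FBS were grown at least 3 days, then given compound as 7 half-log doses in 0.1% DMSO with 0.1 nM R1881 for 24 h. Lysates went into a sandwich AR ELISA with TMB read at 450 nm.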

Where [1] appears, read: VCaP cells; Table 36; read-out: VCaP DC50.
Setting [2] is: VCaP, VCaP cells; Table 36; read-out: VCaP Dmax (%).

For the molecule `Cc1ncsc1-c1ccc([C@H](C)NC(=O)[C@@H]2C[C@@H](O)CN2C(=O)[C@@H](NC(=O)CN2CC3CCC(C2)N3CCCc2ccc(C(=O)NC3C(C)(C)C(Oc4ccc(C#N)c(Cl)c4)C3(C)C)cc2)C(C)(C)C)cc1` (stereo partly drawn) [Example 808, (2S,4R)-1-((2S)-2-(2-(8-(3-(4-(((1r,3r)-3-(3-chloro-4-cyanophenoxy)-2,2,4,4-tetramethylcyclobutyl)carbamoyl)phenyl)propyl)-3,8-diazabicyclo[3.2.1]octan-3-yl)acetamido)-3,3-dimethylbutanoyl)-4-hydroxy-N-((S)-1-(4-(4-methylthiazol-5-yl)phenyl)ethyl)pyrrolidine-2-carboxamide], the Dmax (VCaP, read-out: VCaP Dmax (%)) was in the range of 26 to 50%. The 50% degradation concentration (DC50) (read-out: VCaP DC50; VCaP cells; Table 36) was under 50 nM.
For `Cc1ncsc1-c1ccc([C@H](C)NC(=O)[C@@H]2C[C@@H](O)CN2C(=O)[C@@H](NC(=O)CN2CCN(C3CC4(C3)CN(c3ccc(C(=O)N[C@H]5C(C)(C)[C@H](Oc6ccc(C#N)c(Cl)c6)C5(C)C)cn3)C4)CC2)C(C)(C)C)cc1` [Example 809, N-((1r,3r)-3-(3-chloro-4-cyanophenoxy)-2,2,4,4-tetramethylcyclobutyl)-6-(6-(4-(2-(((S)-1-((2S, 4R)-4-hydroxy-2-(((S)-1-(4-(4-methylthiazol-5-yl)phenyl)ethyl)carbamoyl)pyrrolidin-1-yl)-3,3-dimethyl-1-oxobutan-2-yl)amino)-2-oxoethyl)piperazin-1-yl)-2-azaspiro[3.3]heptan-2-yl)n icotinamide], the DC50 under setting [1] is under 50 nM. Under “VCaP, read-out: VCaP Dmax (%)”, the Dmax is over 71%.
`Cc1ncsc1-c1ccc([C@H](C)NC(=O)C2C[C@@H](O)CN2C(=O)C(c2cc(OCCN(C)[C@H](C(=O)NC(C(=O)N3CCN(c4ccc(C(=O)NC5C(C)(C)C(Oc6ccc(C#N)c(Cl)c6)C5(C)C)cc4)CC3)C(C)C)C(C)C)no2)C(C)C)cc1` (stereo partly drawn) [Example 810, (2S,4R)-1-(2-(3-(2-(((S)-1-(((S)-1-(4-(4-(((1r,3S)-3-(3-chloro-4-cyanophenoxy)-2,2,4,4-tetramethylcyclobutyl)carbamoyl)phenyl)piperazin-1-yl)-3-methyl-1-oxobutan-2-yl)amino)-3-methyl-1-oxobutan-2-yl) (methyl)amino)ethoxy)isoxazol-5-yl)-3-methylbutanoyl)-4-hydroxy-N-((S)-1-(4-(4-methylthiazol-5-yl)phenyl)ethyl) pyrrolidine-2-carboxamide]: the DC50 under setting [1] is under 50 nM. Where the note is “VCaP, read-out: VCaP Dmax (%)”, the Dmax was over 71%.
In the case of `Cc1ncsc1-c1ccc([C@H](CO)NC(=O)[C@@H]2C[C@@H](O)CN2C(=O)[C@@H](NC(=O)COCCN2CCN(c3ccc(C(=O)N[C@H]4C(C)(C)[C@H](Oc5ccc(C#N)c(Cl)c5)C4(C)C)cn3)CC2)C(C)(C)C)cc1` [Example 812, N-((1r,3r)-3-(3-chloro-4-cyanophenoxy)-2,2,4,4-tetramethylcyclobutyl)-6-(4-(2-(2-(((S)-1-((2S, 4R)-4-hydroxy-2-(((R)-2-hydroxy-1-(4-(4-methylthiazol-5-yl)phenyl)ethyl)carbamoyl)pyrrolidin-1-yl)-3,3-dimethyl-1-oxobutan-2-yl)amino)-2-oxoethoxy)ethyl)piperazin-1-yl) nicotinamide], the DC50 under setting [1] is under 50 nM. Besides, the Dmax under setting [2] is over 71%.
With `Cc1ncsc1-c1ccc([C@H](C)NC(=O)C2C[C@@H](O)CN2C(=O)[C@@H](NC(=O)COCCN2C[C@@H](C)N(c3ccc(C(=O)N[C@H]4C(C)(C)[C@H](Oc5ccc(C#N)c(Cl)c5)C4(C)C)cn3)[C@@H](C)C2)C(C)(C)C)cc1` (stereo partly drawn) [Example 813, N-((1r,3R)-3-(3-chloro-4-cyanophenoxy)-2,2,4,4-tetramethylcyclobutyl)-6-((2S,6R)-4-(2-(2-(((2S)-1-((4R)-4-hydroxy-2-(((S)-1-(4-(4-methylthiazol-5-yl)phenyl)ethyl)carbamoyl)pyrrolidin-1-yl)-3,3-dimethyl-1-oxobutan-2-yl)amino)-2-oxoethoxy)ethyl)-2,6-dimethylpiperazin-1-yl)nicotinamide], the half-maximal degradation concentration (DC50) under setting [1] is under 50 nM. Under setting [2], the Dmax was over 71%.
Take `Cc1ncsc1-c1ccc([C@H](C)NC(=O)C2C[C@@H](O)CN2C(=O)C(NC(=O)CN2CC3(CC(N4CCN(c5ccc(C(=O)NC6C(C)(C)C(Oc7ccc(C#N)c(Cl)c7)C6(C)C)cn5)CC4)C3)C2)C(C)(C)C)cc1` (stereo partly drawn) [Example 814, N-((1r,3r)-3-(3-chloro-4-cyanophenoxy)-2,2,4,4-tetramethylcyclobutyl)-6-(4-(2-(2-(((S)-1-((2S, 4R)-4-hydroxy-2-(((S)-1-(4-(4-methylthiazol-5-yl)phenyl)ethyl)carbamoyl)pyrrolidin-1-yl)-3,3-dimethyl-1-oxobutan-2-yl)amino)-2-oxoethyl)-2-azaspiro [3.3]heptan-6-yl)piperazin-1-yl) nicotinamide]: the DC50 under setting [1] was under 50 nM. Moreover, the Dmax under setting [2] fell in the range of 26 to 50%.
As for `Cc1ncsc1-c1ccc([C@H](C)NC(=O)C2C[C@@H](O)CN2C(=O)C(NC(=O)COC(C)(C)CN2CCN(c3ccc(C(=O)NC4C(C)(C)C(Oc5ccc(C#N)c(Cl)c5)C4(C)C)cn3)CC2)C(C)(C)C)cc1` (stereo partly drawn) [Example 815, N-((1r,3r)-3-(3-chloro-4-cyanophenoxy)-2,2,4,4-tetramethylcyclobutyl)-6-(4-(2-(2-(((S)-1-((2S, 4R)-4-hydroxy-2-(((S)-1-(4-(4-methylthiazol-5-yl)phenyl)ethyl)carbamoyl)pyrrolidin-1-yl)-3,3-dimethyl-1-oxobutan-2-yl)amino)-2-oxoethoxy)-2-methylpropyl)piperazin-1-yl) nicotinamide], the 50% degradation concentration (DC50) under setting [1] is under 50 nM. Further, the Dmax under setting [2] is 51 to 70%.
For the molecule `Cc1ncsc1-c1ccc([C@H](C)NC(=O)[C@@H]2C[C@@H](O)CN2C(=O)[C@@H](NC(=O)CN2C[C@H](C)N(CCCc3ccc(C(=O)N[C@H]4C(C)(C)[C@H](Oc5ccc(C#N)c(Cl)c5)C4(C)C)cc3)C[C@H]2C)C(C)(C)C)cc1` [Example 816, (2S,4R)-1-((S)-2-(2-((2R,5S)-4-(3-(4-(((1r, 3S)-3-(3-chloro-4-cyanophenoxy)-2,2,4,4-tetramethylcyclobutyl)carbamoyl)phenyl)propyl)-2,5-dimethylpiperazin-1-yl)acetamido)-3,3-dimethylbutanoyl)-4-hydroxy-N-((S)-1-(4-(4-methylthiazol-5-yl)phenyl)ethyl) pyrrolidine-2-carboxamide], the DC50 under setting [1] is under 50 nM. In addition, the greatest degradation seen (Dmax) (VCaP, read-out: VCaP Dmax (%)) is over 71%.
Regarding `Cc1ncsc1-c1ccc([C@H](C)NC(=O)[C@@H]2C[C@@H](O)CN2C(=O)[C@@H](NC(=O)CN2C[C@@H](C)N(CCCc3ccc(C(=O)N[C@H]4C(C)(C)[C@H](Oc5ccc(C#N)c(Cl)c5)C4(C)C)cc3)C[C@@H]2C)C(C)(C)C)cc1` [Example 817, (2S,4R)-1-((S)-2-(2-((2S,5R)-4-(3-(4-(((1r, 3R)-3-(3-chloro-4-cyanophenoxy)-2,2,4,4-tetramethylcyclobutyl)carbamoyl)phenyl)propyl)-2,5-dimethylpiperazin-1-yl)acetamido)-3,3-dimethylbutanoyl)-4-hydroxy-N-((S)-1-(4-(4-methylthiazol-5-yl)phenyl)ethyl) pyrrolidine-2-carboxamide], the 50% degradation concentration (DC50) under setting [1] is under 50 nM. For the same molecule, the greatest degradation seen (Dmax) (VCaP, read-out: VCaP Dmax (%)) was over 71%.
